± gives the expanded uncertainty stated by the source.
Experiment: mn = molality of the nth substance listed, in mol/kg
Conditions: 75 kPa, Liquid; for viscosity: Capillary tube (Ostwald / Ubbelohde) method; for speed of sound: Frequency=3 MHz, Single path-length method; for mass density: Vibrating tube method

NCCC(=O)O [3-aminopropanoic acid] + O
Conditions | mass density [kg/m3] | speed of sound [m/s] | viscosity [mPa·s]
288.15 K, m1 = 0.1393 | 1003.45 ± 0.3 | 1475.7 ± 4 | 1.179 ± 0.024
288.15 K, m1 = 0.2789 | 1007.7 ± 0.3 | 1484.8 ± 4 | 1.214 ± 0.025
288.15 K, m1 = 0.4194 | 1011.88 ± 0.3 | 1493.8 ± 4 | 1.252 ± 0.026
288.15 K, m1 = 0.5603 | 1015.98 ± 0.3 | 1502.7 ± 4 | 1.291 ± 0.027
288.15 K, m1 = 0.7021 | 1020 ± 0.3 | 1511.6 ± 4 | 1.332 ± 0.028
288.15 K, m1 = 0.8451 | 1023.96 ± 0.3 | 1520.4 ± 4 | 1.372 ± 0.028
288.15 K, m1 = 0.9881 | 1027.81 ± 0.3 | 1529 ± 4 | 1.414 ± 0.029
288.15 K, m1 = 1.132 | 1031.61 ± 0.3 | 1537.5 ± 4 | 1.46 ± 0.03
293.15 K, m1 = 0.1393 | 1002.51 ± 0.3 | 1491.8 ± 4 | 1.033 ± 0.022
293.15 K, m1 = 0.2789 | 1006.72 ± 0.3 | 1500.8 ± 4 | 1.065 ± 0.022
293.15 K, m1 = 0.4194 | 1010.86 ± 0.3 | 1509.7 ± 4 | 1.099 ± 0.023
293.15 K, m1 = 0.5603 | 1014.91 ± 0.3 | 1518.5 ± 4 | 1.134 ± 0.024
293.15 K, m1 = 0.7021 | 1018.9 ± 0.3 | 1527.2 ± 4 | 1.174 ± 0.024
293.15 K, m1 = 0.8451 | 1022.82 ± 0.3 | 1535.9 ± 4 | 1.216 ± 0.025
293.15 K, m1 = 0.9881 | 1026.64 ± 0.3 | 1544.4 ± 4 | 1.259 ± 0.026
293.15 K, m1 = 1.132 | 1030.4 ± 0.3 | 1552.7 ± 4 | 1.307 ± 0.027
298.15 K, m1 = 0.1393 | 1001.3 ± 0.3 | 1505.5 ± 4 | 0.9201 ± 0.019
298.15 K, m1 = 0.2789 | 1005.48 ± 0.3 | 1514.3 ± 4 | 0.9466 ± 0.02
298.15 K, m1 = 0.4194 | 1009.59 ± 0.3 | 1522.9 ± 4 | 0.9744 ± 0.02
298.15 K, m1 = 0.5603 | 1013.63 ± 0.3 | 1531.4 ± 4 | 0.9995 ± 0.021
298.15 K, m1 = 0.7021 | 1017.6 ± 0.3 | 1539.9 ± 4 | 1.034 ± 0.022
298.15 K, m1 = 0.8451 | 1021.51 ± 0.3 | 1548.2 ± 4 | 1.062 ± 0.022
298.15 K, m1 = 0.9881 | 1025.34 ± 0.3 | 1556.4 ± 4 | 1.1 ± 0.023
298.15 K, m1 = 1.132 | 1029.1 ± 0.3 | 1564.5 ± 4 | 1.146 ± 0.024
303.15 K, m1 = 0.1393 | 999.877 ± 0.3 | 1517.7 ± 4 | 0.824 ± 0.017
303.15 K, m1 = 0.2789 | 1004.02 ± 0.3 | 1526.1 ± 4 | 0.8427 ± 0.018
303.15 K, m1 = 0.4194 | 1008.09 ± 0.3 | 1534.5 ± 4 | 0.8667 ± 0.018
303.15 K, m1 = 0.5603 | 1012.08 ± 0.3 | 1542.8 ± 4 | 0.8942 ± 0.019
303.15 K, m1 = 0.7021 | 1016 ± 0.3 | 1550.9 ± 4 | 0.9256 ± 0.019
303.15 K, m1 = 0.8451 | 1019.86 ± 0.3 | 1559 ± 4 | 0.959 ± 0.02
303.15 K, m1 = 0.9881 | 1023.63 ± 0.3 | 1566.9 ± 4 | 1.001 ± 0.021
303.15 K, m1 = 1.132 | 1027.33 ± 0.3 | 1574.7 ± 4 | 1.042 ± 0.022
308.15 K, m1 = 0.1393 | 998.23 ± 0.3 | 1527.9 ± 4 | 0.733 ± 0.015
308.15 K, m1 = 0.2789 | 1002.34 ± 0.3 | 1536 ± 4 | 0.7526 ± 0.016
308.15 K, m1 = 0.4194 | 1006.39 ± 0.3 | 1544 ± 4 | 0.7692 ± 0.016
308.15 K, m1 = 0.5603 | 1010.35 ± 0.3 | 1551.9 ± 4 | 0.7923 ± 0.017
308.15 K, m1 = 0.7021 | 1014.25 ± 0.3 | 1559.7 ± 4 | 0.8219 ± 0.017
308.15 K, m1 = 0.8451 | 1018.1 ± 0.3 | 1567.4 ± 4 | 0.8509 ± 0.018
308.15 K, m1 = 0.9881 | 1021.85 ± 0.3 | 1574.9 ± 4 | 0.8756 ± 0.018
308.15 K, m1 = 1.132 | 1025.53 ± 0.3 | 1582.3 ± 4 | 0.9126 ± 0.019

Source: the NIST ThermoML archive (doi:10.1021/acs.jced.8b00236)
